Test results published in patent publication US9849101B2, “Method for enhancing amidohydrolase activity of fatty acid amide hydrolase” (Research Foundation of the City University of New York, priority 2013, dated 2017).

Columns and labels:
rat E18 cortical neurons = assay: Viability of cultured primary neurons (calcein fluorescence), tBHP oxidative stress; type: cell-based
Protocol: Commercially obtained Sprague/Dawley rat E18 cortical tissue was allowed to settle for 5-10 minutes at room temperature, the shipping media was removed (reserved at 37° C.), and the tissue was enzymatically treated with NeuroPapain dissolved in NeuroPrep Medium (2 mg/ml, 2.5 ml) for 28 minutes at 37° C. with gentle swirling every 7 minutes. Treated tissue was centrifuged for 1.5 minutes at 200×g and the cells were dissociated by gentle trituration in 1 ml of the reserved shipping medium. Cells were collected by centrifugation as above and re-suspended by gentle trituration in 1 ml of NeuroPure plating medium. Viable cells were counted, (Nexcelom Auto T4; Nexcelom Bioscience LLC. Lawrence, Mass.) re-suspended in 9 ml of NeuroPure plating medium plus enough Neurobasal medium (supplemented with B27; GlutaMAX I, 2 mM; Penicillin, 50 U/ml; Streptomycin, 50 μg/ml) to achieve a density of 250,000 cells/ml, and seeded in BD PureCoat™ black-walled amine-coated 96-well plates in a 100 μl volume. […]
Oxidative stress was induced by the addition of concentrated tert-butyl hydrogen peroxide (tBHP) to achieve a final concentration of 7.5 μM. […] For each condition, six replicate wells were measured and the mean value was used for statistical analyses. Data was analyzed and plotted using Prism 5.0 (GraphPad Software Inc., La Jolla, Calif.). […]

At-FAAH = molecular target: T1, At-FAAH (Arabidopsis thaliana, UniProt Q7XJJ7); assay: Ethanolamine inhibition assay, At-FAAH; type: biochemical
T1 construct: made in house; host or cells: E. coli TOP10
T1 sequence (Q7XJJ7 1-607): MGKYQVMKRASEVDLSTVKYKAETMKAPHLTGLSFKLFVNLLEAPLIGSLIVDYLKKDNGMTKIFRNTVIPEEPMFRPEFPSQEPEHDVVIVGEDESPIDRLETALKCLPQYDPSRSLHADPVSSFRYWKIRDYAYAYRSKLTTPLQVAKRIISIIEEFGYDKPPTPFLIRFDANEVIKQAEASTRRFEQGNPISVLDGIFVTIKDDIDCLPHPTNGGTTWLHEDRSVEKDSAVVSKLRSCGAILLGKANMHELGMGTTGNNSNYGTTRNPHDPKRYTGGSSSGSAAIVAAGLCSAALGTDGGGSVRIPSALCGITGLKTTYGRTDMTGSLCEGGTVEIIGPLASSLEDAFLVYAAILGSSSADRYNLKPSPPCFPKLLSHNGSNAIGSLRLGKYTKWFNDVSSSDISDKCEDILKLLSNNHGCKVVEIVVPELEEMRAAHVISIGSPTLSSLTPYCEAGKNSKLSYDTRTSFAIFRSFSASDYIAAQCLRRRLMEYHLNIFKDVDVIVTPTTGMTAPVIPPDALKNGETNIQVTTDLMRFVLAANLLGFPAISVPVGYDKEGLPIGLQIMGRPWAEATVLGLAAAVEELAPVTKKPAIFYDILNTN

rat FAAH [1] = molecular target: T2, rat FAAH (Rattus norvegicus, UniProt P97612); assay: Ethanolamine inhibition assay, rat FAAH; type: biochemical
T2 construct: made in house; host or cells: E. coli TOP10
T2 sequence (P97612 1-579): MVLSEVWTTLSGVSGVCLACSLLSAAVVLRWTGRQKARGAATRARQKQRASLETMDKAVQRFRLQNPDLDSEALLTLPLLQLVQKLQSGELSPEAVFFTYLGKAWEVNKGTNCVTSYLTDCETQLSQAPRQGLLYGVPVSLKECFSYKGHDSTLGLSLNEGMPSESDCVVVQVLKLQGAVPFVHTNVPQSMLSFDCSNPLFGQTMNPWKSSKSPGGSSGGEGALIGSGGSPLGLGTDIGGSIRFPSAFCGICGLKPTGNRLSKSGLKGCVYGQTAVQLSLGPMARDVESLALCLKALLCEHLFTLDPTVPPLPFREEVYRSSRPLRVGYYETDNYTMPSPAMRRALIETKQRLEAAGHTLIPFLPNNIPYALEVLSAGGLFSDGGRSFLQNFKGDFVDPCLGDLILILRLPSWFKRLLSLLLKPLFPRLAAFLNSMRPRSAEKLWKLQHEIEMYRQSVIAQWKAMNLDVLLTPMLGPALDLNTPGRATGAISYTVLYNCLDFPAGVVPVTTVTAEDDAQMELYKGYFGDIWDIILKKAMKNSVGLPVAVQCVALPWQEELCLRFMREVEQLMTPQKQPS

rat brain FAAH = molecular target: T3, rat brain FAAH (Rattus norvegicus, UniProt P97612); settings: reported value; read-out: IC50 for anandamide hydrolysis; cited from earlier work
T3 construct: host or cells: rat brain
T3 sequence (P97612 1-579): T2 sequence (P97612 1-579)

[2] = molecular target: T4, Arabidopsis thaliana FAAH (AT-FAAH) (Arabidopsis thaliana, UniProt Q7XJJ7); assay: NAE amidohydrolase assay on purified recombinant At-FAAH; type: biochemical
T4 construct: made in house; host or cells: E. coli TOP10
T4 sequence (Q7XJJ7 1-607): T1 sequence (Q7XJJ7 1-607)

rat FAAH [3] = molecular target: T2, rat FAAH; assay: NAE amidohydrolase assay on purified recombinant rat FAAH; type: biochemical
[4] = system: Arabidopsis thaliana wild type (Col-0) seedlings; assay: Arabidopsis seedling growth (cotyledon size, primary root elongation); type: in vivo
[5] = molecular target: T5, NAE amidohydrolase activity from crude seedling extracts (Arabidopsis thaliana, UniProt Q7XJJ7); assay: Plant amidohydrolase assay on crude seedling protein extract; type: biochemical; settings: [1-14C]-NAE 12:0, 11-d-old seedlings, 2 hours
T5 construct: from tissue; host or cells: 11-day-old Arabidopsis thaliana Col-0 seedlings, total solubilized protein
T5 sequence (Q7XJJ7 1-607): T1 sequence (Q7XJJ7 1-607)

[6] = 2 μg protein, 100 μM-300 μM substrate, TLC
[7] = 100 μM [1-14C]-NAE 12:0 with 100 μM compound
[8] = 100 μM compound, up to 10 mM ethanolamine, 100 μM [1-14C]-NAE 12:0

Question: With `NC(=O)c1cccc(-c2cccc(OC(=O)NC3CCCCC3)c2)c1` [URB597] as the compound, how does the “reversal of cardanol-induced exacerbation of tBHP mediated cell death by FAAH inhibitor” value (rat E18 cortical neurons) read?
Answer: Its value is “completely reversed”.

Question: Which “NAE hydrolase activity at increasing ethanolamine concentrations” value (At-FAAH; 0-100 mM ethanolamine) does the source give for `NCCO` [ethanolamine] here?
Answer: The value was “dose-dependent reduction”.

Question: And the “NAE hydrolase activity at increasing ethanolamine concentrations” value (rat FAAH [1]; 0-100 mM ethanolamine)?
Answer: Its value is “dose-dependent reduction”.

Question: What does the source list for `CCCCCCCCCCCCCCCC(=O)NCCO` [NAE 16:0, N-palmitoylethanolamine]?
Answer: reversal of cardanol-induced exacerbation of tBHP mediated cell death (rat E18 cortical neurons; 1 hour prior to addition of 1 nM cardanol-EA): dose-dependent reversal; IC50 (rat brain FAAH): 5.1 µM

Question: For `CCCCCCCCCCCCCCCc1cccc(OCC(=O)NCCO)c1` [PDP-EA, N-(2-hydroxyethyl)-2-(3-pentadecylphenoxy)acetamide], which “apparent Vmax” value [2] is on record?
Answer: Its value is “increased”.

Question: What about the “hydrolysis of the compound as substrate to acid form and ethanolamine” value [2, 6] of the same compound?
Answer: The value was “not suitable substrates”.

Question: What about the “amidohydrolase activity toward NAE” value [2, 7] of the same compound?
Answer: The value was “increased”.

Question: And the “increase of activity by a factor” value ([2]; 100 μM compound, different [1-14C]-NAEs)?
Answer: The value was “about 4±1.2”.

Question: And the “Km app versus solvent control” value ([2]; NAE 12:0 substrate, 100 μM compound, T-test confidence level 95%)?
Answer: The value was “No statistical difference”.

Question: And the “non-enzymatic hydrolysis of NAE to free fatty acid” value ([2]; heat-denaturated enzyme, 100 μM compound)?
Answer: The value was “no activity”.

Question: What about the “apparent Vmax” value (rat FAAH [3]) of the same compound?
Answer: The value was “increased”.

Question: And the “hydrolysis of the compound as substrate to acid form and ethanolamine” value (rat FAAH [3]; [6])?
Answer: Its value is “not suitable substrates”.

Question: What about the “amidohydrolase activity toward NAE” value (rat FAAH [3]; [7]) of the same compound?
Answer: The value was “increased”.

Question: What about the “increase of activity by a factor” value (rat FAAH [3]; 100 μM compound, NAE 16:0 and NAE 12:0) of the same compound?
Answer: Its value is “about 5±2.2”.

Question: And the “Kcat versus solvent control” value (rat FAAH [3]; NAE 20:4 substrate, 100 μM compound)?
Answer: Its value is “increase in Kcat”.

Question: And the “protection from ethanolamine product inhibition” value (At-FAAH; [8])?
Answer: Its value is “relieved this ethanolamine inhibition almost completely”.

Question: What about the “protection from ethanolamine product inhibition” value (rat FAAH [1]; [8]) of the same compound?
Answer: The value was “relieved this ethanolamine inhibition almost completely”.

Question: And the “reversal of negative seedling growth effects of exogenous NAE 12:0” value ([4]; 30 μM NAE 12:0, 20 μM compound, 11 days)?
Answer: The value was “reverse partially”.

Question: And the “seedling growth (cotyledon size), compound alone” value ([4]; compound alone, 11 days)?
Answer: The value was “positive impact on seedling growth”.

Question: And the “reversal of negative effects of NAE 12:0 on cotyledon size” value ([4]; with NAE 12:0, 11 days)?
Answer: The value was “partially reversed”.

Question: And the “NAE amidohydrolase activity of crude seedling extracts” value [5]?
Answer: The value was “enhancement”.

Question: For `CCCCCCCCCCCC(=O)NCCO` [NAE 12:0, N-lauroylethanolamine, reference compound], which “seedling growth on exogenous application” value ([4]; applied exogenously) is on record?
Answer: The value was “inhibits seedling growth”.
